Broadly, the Kd is the equilibrium constant for the complex coming apart. High values mean lower affinity, low ones higher affinity.

Tested on in the first experiment: not listed separately
The experiment in a line: Evaluation of ROS production according to lysine concentration. As to conditions: 10 μM compound with about 1.0 mM monomeric lysine, PBS pH 7.4, light of about 530 nm. As to the method: • i) 1.0 mM lysine (hereinafter, Lys) was mixed in PBS buffer solution (pH 7.4) and irradiated with light of about 530 nm. The fluorescence generated over time was measured using a Scinco FS-2, and results thereof are shown in FIG. 7A. • ii) The result of mixing 10 μM boron-containing compound B3 instead of the 1.0 mM lysine (Lys) is shown in FIG. 7B, iii) the result of mixing 10 μM boron-containing compound B3 and 0.1 mM lysine (Lys) instead of the 1.0 mM lysine (Lys) is shown in FIG. 7C, and iv) the result of mixing 10 μM boron-containing compound B3 and 1.0 mM lysine (Lys) instead of the 1.0 mM lysine (Lys) is shown in FIG. 7D.
For `O=Cc1cc2ccccc2cc1NCc1ccccc1B(O)O` [B3], the “reactive oxygen species generated when mixed with lysine” value is listed as “relatively large amount of reactive oxygen species is generated”.

The target of a further experiment is albumin (HSA) (Homo sapiens, UniProt P02768). In words: Binding ability evaluation: dissociation constant from fluorescence change with increasing albumin. Conditions: 100 nM boron-containing compound, 95 vol % PBS buffer and 5 vol % DMSO, stirred 2 hours, fluorescence at 530 nm. How it is done: 100 nM boron-containing compound B1 and albumin (HSA) were mixed in 95 vol % PBS buffer and 5 vol % dimethyl sulfoxide (DMSO) and stirred for 2 hours. The change in fluorescence intensity (F.I.) was measured while increasing the concentration of the albumin, and the dissociation constant (Kd) calculated based thereon is shown in FIG. 2.
Chain of albumin (HSA) (P02768 25-609): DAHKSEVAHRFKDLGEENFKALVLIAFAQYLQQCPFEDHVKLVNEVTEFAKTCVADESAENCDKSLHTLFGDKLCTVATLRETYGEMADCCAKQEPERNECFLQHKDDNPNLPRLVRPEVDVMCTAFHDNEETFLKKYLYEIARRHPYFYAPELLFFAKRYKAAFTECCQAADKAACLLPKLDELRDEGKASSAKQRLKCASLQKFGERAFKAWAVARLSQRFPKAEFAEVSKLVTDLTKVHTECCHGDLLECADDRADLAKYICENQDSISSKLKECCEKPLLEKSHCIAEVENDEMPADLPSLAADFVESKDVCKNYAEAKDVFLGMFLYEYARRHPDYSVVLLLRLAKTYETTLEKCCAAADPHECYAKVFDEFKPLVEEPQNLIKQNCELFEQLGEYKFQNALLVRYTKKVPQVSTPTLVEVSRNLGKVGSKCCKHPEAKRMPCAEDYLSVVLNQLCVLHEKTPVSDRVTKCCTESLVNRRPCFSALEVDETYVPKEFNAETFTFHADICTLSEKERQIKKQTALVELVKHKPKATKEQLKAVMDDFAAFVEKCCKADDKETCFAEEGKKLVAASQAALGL
For example, 0:1 represents the case where 100 nM albumin (HSA) was used without using a boron-containing compound, 1:0 represents the case where 100 nM boron-containing compound B1 was used and no albumin (HSA) was used, 1:2 represents the case where 100 nM boron-containing compound B1 and 200 nM albumin (HSA) were used, and 1:16 represents the case where 100 nM boron-containing compound B1 and 1600 nM albumin (HSA) were used.
The dissociation constants (Kd) of boron-containing compounds B2 to B5 were calculated in the same method as used to produce boron-containing compound B1.
As to `O=Cc1ccccc1NCc1ccccc1B(O)O` [B1], binding was characterised by a dissociation constant (Kd) of 0.185 µM. With `O=Cc1cc(Br)ccc1NCc1ccccc1B(O)O` [B2], the affinity, expressed as Kd, was 0.383 µM.

Take `O=Cc1cc2ccccc2cc1NCc1ccccc1B(O)O` [B3]: binding was put at a Kd of 2.48 µM. Turning to `O=C(c1ccccc1)c1ccccc1NCc1ccccc1B(O)O` [B4], binding was characterised by a dissociation constant (Kd) of 2.22 µM. Same read-out and setting: the value for `O=Cc1cc2c(cc1NCc1ccccc1B(O)O)OCO2` [B5] was 0.571 µM.
